Data reported in patent publication US6039963A, “Ceramide compounds, process for their preparation and use” (L'Oreal, priority 1995, dated 2000).

Columns and labels:
[1] = imperceptible water loss (IWL), evaporimeter (Servomed) on delipidized stratum corneum
Source text: This measurement is made using an evaporimeter (Servomed) which quantitatively determines water evaporation, that is to say diffusional water transport, from a sample of previously delipidized stratum corneum which forms a stopper in a cylindrical capsule containing water, the entire assembly being placed in a chamber at controlled temperature and relative humidity.
Sensors allow the partial vapor pressure of water to be measured at two points located at different distances from the sample.
The partial vapor pressure of water is thus determined between the two points, and thus the rate of evaporation in accordance with Fick's law.
A comparative test was performed of the effects on the IWL of a solution containing the compound of Example 2 or 4 in tetrahydrofuran (THF) relative to a solution containing, in place of the compound according to the invention, either the pure isomer (D-ribo form) corresponding to the compound of Example 4 (compound A), or the compound of Example 1 of the European patent application published under the No. 0,500,437 filed by the Applicant (compound B).

[2] = coefficient of friction of the hair (smoothness), neutral hair, 1% in THF; settings: for coefficient of friction of the hair, R → T / coefficient of friction of the hair, T → R: neutral hair, 1% in THF; for coefficient of friction of the hair, R → T: root to tip; for coefficient of friction of the hair, T → R: tip to root
Experimental: (§1) A comparative test was performed on the effects on the smoothness of the hair of a solution containing 1% of the compound of Example 4 in tetrahydrofuran (THF), relative to a control consisting of THF, or to a solution containing, in place of the compound according to the invention, either the pure isomer (D-ribo form) corresponding to the compound of Example 4 (compound A) or the compound of Example 1 of the European patent application published under the No. 0,500,437 owned by the present assignee (compound B).
(§2) This test determines the coefficient of friction of the hair by measuring the force to apply to a control mass in order to make it slide at constant speed on two hairs stretched out in parallel. The measurement is made by sliding the mass from the root to the tip of the hairs (R→T) and vice versa (T→R).

[3] = coefficient of friction of the hair (smoothness), bleached hair, 1% in THF; settings: for coefficient of friction of the hair, R → T: root to tip; for coefficient of friction of the hair, T → R: tip to root
Experimental: as §1, §2

| Compound | I.W.L. 20 H (%) ([1]; 2% in THF) | coefficient of friction of the hair, R → T ([2]; non-rinsed) | coefficient of friction of the hair, T → R ([2]; non-rinsed) | coefficient of friction of the hair, R → T ([2]; rinsed) | coefficient of friction of the hair, T → R ([2]; rinsed) | coefficient of friction of the hair, R → T ([3]; non-rinsed) | coefficient of friction of the hair, T → R ([3]; non-rinsed) | coefficient of friction of the hair, R → T ([3]; rinsed) | coefficient of friction of the hair, T → R ([3]; rinsed) | I.W.L. 20 H (%) ([1]; 1% in THF) | coefficient of friction (result in words) ([2]; summary of Table 1, neutral and bleached hair) | I.W.L. 20 H (%) ([1]; 1.5% in THF) |
| --- | --- | --- | --- | --- | --- | --- | --- | --- | --- | --- | --- | --- |
| CCCCCCCCCCCCCCC(O)C(=O)NC(CO)C(O)C(O)CCCCCCCCCCCCCC (racemic) [Example 2, 2-N-hydroxyhexadecanoylaminooctadecane-1,3,4-triol(4 isomers)] | -31 ± 2 | – | – | – | – | – | – | – | – | – | – | – |
| CCCCCCCCCCCCCCCC(=O)N[C@@H](CO)[C@H](O)[C@H](O)CCCCCCCCCCCCCC [Compound A, reference compound] | – | 0.000 | 0.000 | 0.125 ± 0.004 | 0.214 ± 0.004 | 0.000 | 0.000 | 0.191 ± 0.004 | 0.264 ± 0.012 | 0 ± 2 | – | – |
| CCCCCCCCCCCCCCCC(=O)NC(CO)C(O)C(O)CCCCCCCCCCCCCC (stereo not drawn) [Example 4, 2-N-hexadecanoylaminooctadecane-1,3,4-triol (8 isomers)] | – | 0.089 ± 0.003 | 0.143 ± 0.003 | 0.095 ± 0.004 | 0.147 ± 0.004 | 0.009 ± 0.006 | 0.147 ± 0.006 | 0.085 ± 0.002 | 0.155 ± 0.004 | -9 ± 2 | marked decrease in the coefficient of friction | -15 ± 2 |
